# Tested on: α- and β-secretase cleavage of APP
# Test: Western blot of intracellular APP-C99 and APP-C83 in rat primary neurons exposed to NMDAR modulators
# Format: cell-based
# Conditions: 15 DIV, compared to the untreated control, NMDA, D-serine 30µM for 3 minutes, memantine 30µM for 16 hours, DAPT 1 µM for 16 hours
# Method: Neuronal cultures and treatments. Cortical and hippocampal neurons were cultured as described^27 from postnatal day 0 rats or mice and all treatments described bellow carried out at 15 days in vitro (DIV). Stimulations with 30µM N-methyl-D-aspartate (NMDA, Tocris), 30µM D-serine (the D isoform of the amino acid serine, Sigma), or a combination of NMDA + D-serine (30µM each) were carried out for 3 minutes and neurons transferred into trophically enriched medium and further incubated for 16 hours. Treatments with 30µM 1-amino-3,5-dimethyladamantane (memantine, Lucerna-Chem), 1 µM N-[N-(3,5-difluorophenacetyl)-L-alanyl]-S-phenylgly cine t-butyl ester (DAPT, ), and 1 µM phorbol 12-myristate 13-acetate (PMA, Sigma) were carried out for 16 hours. Pre-treatments with 1 µM TAPI-1 (Calbiochem), 1 µM GL189 (Calbiochem), 1,2-bis(o-aminophenoxy)ethane-N,N,N',N'-tetraacetic acid (BAPTA, Sigma), H-89, chelerythrine, or KN-62 (Biaffin GmbH & Co KG) were carried out for 1 hour. Next, neurons were treated (or not) with NMDA or NMDA + D-serine as described above, and cells transferred into trophically enriched medium and incubated for additional 15 hours. Whole cell lysates were prepared for Western blot analysis as described below.
# Western blotting and antibodies. Cells were washed with cold phosphate-bufferd saline containing 2 mM EDTA and homogenized in 50 mM Tris-HCL pH 7.4, 350 mM NaCl, 100 mM DTT, 0.1% SDS, 0.5% NP-40 and a cocktail of protease inhibitors (Roche Diagnostics). Protein whole cell extracts were separated on 4-12% Bis-tris gels (Invitrogen) and transferred onto nitrocellulose membranes to detect APP-FL, APP-C99, APP-C83 and AICD (CT15, Sigma), sAPPα (6E10, Signet), Notch-FL and NICD (Sigma), ADAM10 (Calbiochem), ADAM17 (Calbiochem), BACE1 (EE17, Sigma), NCT (NCT164, BD Bioscience), PS1-FL and PS1-NTF (MAB1536, Chemicon International), Pen-2 (UD-1, 1:500, a gift of Helena Karlström), and β-Action (Sigma).
row,Compound,intracellular accumulation of APP-C99 and APP-C83
1,N[C@H](CO)C(=O)O [D-serine],did not affect the production of APP-C99/APP-C83
2,"C[C@H](NC(=O)Cc1cc(F)cc(F)c1)C(=O)N[C@H](C(=O)OC(C)(C)C)c1ccccc1 [DAPT, N-[N-(3,5-difluorophenacetyl)-L-alanyl]-S-phenylglycine t-butyl ester]",increased levels of both APP-C83 and APP-C99
3,"CC12CC3CC(C)(C1)CC(N)(C3)C2 [memantine, 1-amino-3,5-dimethyladamantane]",triggered the accumulation of APP-C83

# From EP2111858A1, “Novel treatment for alzheimer's disease” (EPFL Ecole Polytechnique Fédérale de Lausanne, priority 2008, dated 2009)
